According to patent US20240050434A1, “HORMAD1 THERAPEUTICS” (Royal Cancer Hospital, priority 2020, published 2024):
“Also recorded” adds a separate entry of the source.

Key:
Assay type in all cases: cell-based
[1] = test system: SUM159 cells expressing a doxycycline-inducible HORMAD1 construct; assay: Clonogenic survival assay (SRB) in SUM159 cells with doxycycline-inducible HORMAD1; details: increasing doses, 10-14 days, normalised to vehicle
Procedure: Cell confluence was analysed every 6 hours for 10 days, using incucyte software. Data are from 3 biological replicates and analysed using a two-way ANOVA. […] RPE1 cells expressing a doxycycline-inducible HORMAD1 expression construct were exposed to doxycycline or vehicle (H2O) and were exposed to 20 nM of the Aurora B inhibitor, AZD1152-HQPA. Cell confluence was analysed every 6 hours for 10 days, using incucyte software. Data are from 3 biological replicates and analysed using a two-way ANOVA. […] 7-10 days post drugging, cells were fixed, stained with SRB, and colonies were counted using Cell Profiler. […] 10 days post drugging, cells were fixed, stained with SRB, and colonies were counted using Cell Profiler. […] 7-10 days post drugging, cells were fixed, stained with SRB, and colonies were counted using Cell Profiler. […] 10 days post drugging, cells were fixed, stained with SRB, and colonies were counted using Cell Profiler.
RPE1 and SUM159 cells expressing a doxycycline-inducible HORMAD1 construct were treated with doxycycline or vehicle. […] Surviving fractions were calculated (normalised to vehicle treated cells). […] Data from 3 replicas was analysed using 2-way ANOVA. […] Surviving fractions were calculated (normalised to vehicle treated cells). Data from 4 replicas was analysed using 2-way ANOVA. […]

[2] = test system: RPE1 cells expressing a doxycycline-inducible HORMAD1 construct; assay: Incucyte time-lapse confluence/proliferation in RPE1 cells with doxycycline-inducible HORMAD1; details: for cellular growth / fitness of HORMAD1 expressing RPE1 cells versus vehicle-induced cells under drug: incucyte confluence, 200 nM BOS172722 or 20 nM AZD1152-HQPA 10 days, 3 μM BAY-1816032 14 days
Procedure: Cell confluence was analysed every 6 hours for 10 days, using incucyte software. Data are from 3 biological replicates and analysed using a two-way ANOVA. […] RPE1 cells expressing a doxycycline-inducible HORMAD1 expression construct were exposed to doxycycline or vehicle (H2O) and were exposed to 20 nM of the Aurora B inhibitor, AZD1152-HQPA. Cell confluence was analysed every 6 hours for 10 days, using incucyte software. Data are from 3 biological replicates and analysed using a two-way ANOVA. […] 7-10 days post drugging, cells were fixed, stained with SRB, and colonies were counted using Cell Profiler. […] 10 days post drugging, cells were fixed, stained with SRB, and colonies were counted using Cell Profiler. […] RPE1 cells expressing a doxycycline-inducible HORMAD1 expression construct were exposed to doxycycline or vehicle (H2O) and to increasing doses of the Aurora B inhibitor, AZD1152-HQPA. 7-10 days post drugging, cells were fixed, stained with SRB, and colonies were counted using Cell Profiler. […] SUM159 cells expressing a doxycycline-inducible HORMAD1 expression construct were exposed to doxycycline or vehicle (H2O) and to increasing doses of the Aurora B inhibitor, AZD1152-HQPA. 10 days post drugging, cells were fixed, stained with SRB, and colonies were counted using Cell Profiler.
RPE1 cells were reverse transfected with BUB1 or control siRNA particles for 3 days. Cell lysates were collected, and analysed by western blotting using anti-BUB1 and anti-β-ACTIN antibodies. […] RPE1 cells expressing a doxycycline-inducible HORMAD1 expression construct were exposed to doxycycline or vehicle, and were reverse transfected with BUB1 or control siRNA particles. 5 days post transfection, cellular viability was estimated using cell titer glo reagent and surviving fractions were calculated relative to DMSO treated cells. […] Statistical significance estimated using a one-way ANOVA with Sidak's correction. C. […] Cell lysates were collected, and analysed by SDS-PAGE and western blotting using anti-HORMAD1, anti-H3 and anti-BUB1 antibodies. […] 7-10 days post doxycycline induction, cells were fixed, stained with SRB, and cellular viability was estimated using SRB absorbance readings. […] Cells were fixed, stained with SRB, and cellular viability was estimated using SRB absorbance readings. […] Cells were imaged every 4 hours, and confluence was continually measured using incucyte software. […] Patient-derived organoids models were grown in culture and cell lysates collected and analysed using SDS-PAGE and western blotting using anti-HORMAD1 and anti-β-ACTIN antibodies. […] Cellular viability was estimated using cell titer glo reagent and surviving fractions were calculated relative to DMSO treated cells. […]

[3] = test system: HORMAD1 positive organoid KCL625; assay: HORMAD1 positive organoid KCL625 viability by cell titer glo; details: indicated doses, 10 days
Procedure: Organoids were treated with the indicated doses of drug for 10 days and cell viability assessed by cell titer glo. Data is presented as mean and standard deviation of triplicate wells;

[4] = test system: RPE1 cells expressing a doxycycline-inducible HORMAD1 construct; assay: Cell viability by cell titre glo in RPE1 cells with doxycycline-inducible HORMAD1
Procedure: RPE1 cells expressing a doxycycline-inducible HORMAD1 construct were treated with doxycycline or vehicle. […] Six days post HORMAD1 induction and 5 days post drug, cell viability was estimated using cell titre glo reagent. Surviving fractions were calculated (normalised to vehicle treated cells).
RPE1 and SUM159 cells expressing a doxycycline-inducible HORMAD1 construct were treated with doxycycline or vehicle. […] Surviving fractions were calculated (normalised to vehicle treated cells). (FIGS. 7a, b and 14c and d). Data from 3 replicas was analysed using 2-way ANOVA. 5 days post drugging, cell viability was estimated using cell titre glo reagent. Surviving fractions were calculated (normalised to vehicle treated cells). Data from 4 replicas was analysed using 2-way ANOVA.
RPE1 cells expressing a doxycycline-inducible HORMAD1 construct were treated with doxycycline or vehicle. […] 5 days post drugging, cell viability was estimated using cell titre glo reagent. Surviving fractions were calculated (normalised to vehicle treated cells).
RPE1 cells expressing a doxycycline-inducible HORMAD1 construct were treated with doxycycline or vehicle in order to induce HORMAD1 expression. […] Using cell titre glo as a measure of cell viability, surviving fractions were calculated (normalised to eribulin alone).
RPE1 cells expressing a doxycycline-inducible HORMAD1 construct were treated with doxycycline or vehicle. […] Using cell titre glo as a measure of cell viability, surviving fractions were calculated (normalised to olaparib alone).

[5] = test system: TP53 null MCF10A cells expressing a doxycycline-inducible HORMAD1 construct (3D spheroids); assay: 3D spheroid viability (cell titre glo) in TP53 null MCF10A cells with inducible HORMAD1; details: increasing doses, 14 days post drugging
Procedure: TP53 null MCF10A cells expressing a doxycycline-inducible HORMAD1 construct were treated with doxycycline or vehicle. Cells were grown in 3D spheroid cultures. Following doxycycline induction, increasing doses of BUB1 inhibitor BAY-1816032 was added to the cells. 14 days post drugging, cell viability was estimated using cell titre glo reagent. Surviving fractions were calculated (normalised to vehicle treated cells). Data is from 3 replicas, analysed using 2-way ANOVA.

Row | SMILES | clonogenic survival / sensitivity of HORMAD1 expressing versus HORMAD1-negative SUM159 cells [1] | cellular growth / fitness of HORMAD1 expressing RPE1 cells versus vehicle-induced cells under drug [2] | sensitivity (surviving fraction versus DMSO) of organoid KCL625 [3] | growth inhibition (surviving fraction) of HORMAD1 expressing versus HORMAD1-negative RPE1 cells, with eribulin ([4]; increasing doses alongside 0.4 nm eribulin, normalised to eribulin alone) | growth inhibition (surviving fraction) of HORMAD1 expressing versus HORMAD1-negative RPE1 cells, with olaparib ([4]; increasing doses alongside 0.47 μm olaparib, normalised to olaparib alone) | growth inhibition (surviving fraction) of HORMAD1 expressing versus HORMAD1-negative RPE1 cells ([4]; increasing doses, 5 days post drug, cell titre glo, normalised to vehicle) | growth inhibition of HORMAD1 expressing versus HORMAD1-negative spheroids [5] | confluency reached, HORMAD1 expressing RPE1 cells ([2]; 3 μM, 240 hours, incucyte) | confluency reached, RPE1 cells without HORMAD1 expression ([2]; 3 μM, 240 hours, incucyte) [%]
1 | CCN(CCO)CCCOc1ccc2c(Nc3cc(CC(=O)Nc4cccc(F)c4)[nH]n3)ncnc2c1 [AZD1152-HQPA] | reduced clonogenic survival; also recorded: increased Aurora B inhibitor sensitivity | marked decrease in cellular growth; also recorded: decreased cellular fitness | highly sensitive; also recorded: high sensitivity | – | – | – | – | – | –
2 | COc1cnccc1Nc1nc(-c2nn(Cc3c(F)cc(OCCO)cc3F)c3ccccc23)ncc1OC [BAY-1816032] | – | decreased cellular fitness | – | more effectively inhibited | more effectively inhibited | more effectively inhibited | more effectively inhibited | around 15% | ~85
